A value given as a limit tells only on which side of the number the result lay.

The text below walks through data of patent US9951088B2, “D2 receptor modulators and methods of use thereof in the treatment of diseases and disorders” (SUNOVION PHARMACEUTICALS INC., priority 2012, dated 2018).

For assay [1], the target named is T1, long isoform of human D2 receptor (Homo sapiens, UniProt P14416). Kind of assay: Arrestin Antagonist Assay (DRD2L PathHunter CHO-K1 cells, vs EC80 dopamine). The following applies: for Emax: CHO-K1, read-out: β-arrestin (antagonist mode) Imax.
T1 sequence (P14416 whole entry, canonical isoform): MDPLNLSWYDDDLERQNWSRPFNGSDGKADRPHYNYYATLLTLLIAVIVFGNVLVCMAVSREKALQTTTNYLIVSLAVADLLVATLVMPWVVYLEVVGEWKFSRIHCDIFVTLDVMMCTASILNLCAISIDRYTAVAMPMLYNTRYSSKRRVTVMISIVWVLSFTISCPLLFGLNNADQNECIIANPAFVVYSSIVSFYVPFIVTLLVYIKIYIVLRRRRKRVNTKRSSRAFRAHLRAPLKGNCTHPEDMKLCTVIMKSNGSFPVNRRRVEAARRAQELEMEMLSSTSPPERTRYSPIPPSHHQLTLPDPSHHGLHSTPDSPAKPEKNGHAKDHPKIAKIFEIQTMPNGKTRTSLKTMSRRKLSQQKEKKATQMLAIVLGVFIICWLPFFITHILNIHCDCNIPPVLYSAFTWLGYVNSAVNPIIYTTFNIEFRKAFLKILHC
The target of assay [2] is T1, long isoform of human D2 receptor. Kind of assay: cAMP HTRF Agonist Assay (DRD2L PathHunter CHO-K1 cells, forskolin-stimulated). Conditions: for Emax: CHO-K1, read-out: cAMP (agonist mode) Emax. On the technique in general: TR-FRET usually uses a lanthanide donor and a delayed reading to cut background.
The target is the same in assay [3]. Kind of assay: Arrestin Agonist Assay (DRD2L PathHunter CHO-K1 cells, β-arrestin recruitment). Conditions: for Emax: CHO-K1, read-out: β-arrestin (agonist mode) Emax. On the technique in general: Arrestin recruitment assays detect the binding of arrestin to an activated receptor.

Broadly, the IC50 is the concentration that inhibits the measured activity by half. A low value points to greater potency in that assay. The EC50 is the midpoint of the concentration-response curve. Low values mean an effect from little substance, high ones a need for much substance. `Clc1cccc(N2CCN(CCCCOc3ccc4cn[nH]c4c3)CC2)c1` [Compound 98, 6-(4-(4-(3-chlorophenyl)piperazin-1-yl)butoxy)-1H-indazole]: in assay [1], the IC50 is 100 to 1000 nM and the Emax was 25 to 50%. In assay [2], the IC50 was in the range of 10 to 100 nM and the Emax was 50 to 75%. In assay [3], the 50% effective concentration (EC50) lay within 10 to 100 nM and the Emax was 25 to 50%.

`COc1cccnc1N1CCN(CCCCOc2ccc3cn[nH]c3c2)CC1` [Compound 99, 6-(4-(4-(3-methoxypyridin-2-yl)piperazin-1-yl)butoxy)-1H-indazole]: in assay [1], the IC50 lay within 10 to 100 nM and the Emax was more than 75%. In assay [2], the 50% inhibitory concentration (IC50) was less than 10 nM and the Emax was in the range of 25 to 50%. For the same compound, in assay [3], the concentration giving a half-maximal response (EC50) was less than 10 nM and the Emax lay in the range of 10 to 25%.
